# Read-outs that look alike come from different tables or passages of the source.
# Assays:
# [1] = test system: Haemophilus influenzae Spain 7; test: Determination of minimum inhibitory concentration (MIC), liquid dilution test; type: cell-based; details: SPAIN7, BHI broth plus 20% bovine serum, 10 μg/ml hemin and 1% Isovitale, 37° C., 18-24 hours, 8-10% CO2
# Method: (§1) Determination of Minimum Inhibitory Concentration (MIC):
# (§2) The MIC is determined in the liquid dilution test. Overnight cultures of the test organisms are diluted to a cell count of 10^5 organisms per ml in Isosensitest medium (manufacturer: Difco) and are incubated with dilutions of the test substances (1:2 dilution states). Exceptions are the tests with S. pneumoniae G9A, which are conducted in BHI broth (Difco) plus 20% bovine serum, and with H. influenzae, which are conducted in BHI broth (Difco) plus 20% bovine serum, 10 μg/ml hemin and 1% Isovitale (Becton Dickinson).
# (§3) The cultures are incubated at 37° C. for 18-24 hours; S. pneumoniae and H. influenzae in the presence of 8-10% CO2.
# (§4) The lowest concentration of each substance at which there was no longer any visible bacterial growth is defined as the MIC. The MICs in μmol/l of some compounds according to the invention against a series of test organisms are listed by way of example in the table below.
# [2] = test system: Staphylococcus aureus 133; test: as above; type: cell-based
# Method: as §1, §2, §3, §4
# [3] = described in the literature; cited from earlier work
# [4] = Staphylococcus aureus, 133, liquid dilution test, Isosensitest medium, 10^5 organisms per ml, 37° C., 18-24 hours, lowest concentration with no visible growth, read-out: MIC Staphylococcus aureus 133
Structure (SMILES),MIC [1] [µM],"MIC [2, 4] [µM]","MIC ([2]; Staphylococcus aureus, 133, read-out: MIC Staphylococcus aureus 133) [µM]",antibacterial activity [3]
"CC(C)[C@H](NC(=O)C[C@H](NC(=O)NCc1ccccc1)c1ccccc1)C(=O)[C@@H]1C(=O)NC(=O)[C@H]1C [Example 2, (S)-3-(3-Benzylureido)-N-{(S)-2-methyl-1-[1-((3R,4S)-4-methyl-2,5-dioxopyrrolidin-3-yl)-methanoyl]propyl}-3-phenylpropionamide]",62.5,3.9,,
"CC(C)[C@H](NC(=O)C[C@H](NC(=O)Nc1ccccc1)c1ccccc1)C(=O)[C@@H]1C(=O)NC(=O)[C@H]1C [Example 5, (S)-N-{(S)-2-Methyl-1-[1-((3R,4S)-4-methyl-2,5-dioxopyrrolidin-3-yl)-methanoyl]-propyl}-3-phenyl-3-(3-phenylureido)propionamide]",,62.5,,
"COc1ccc(NC(=O)N[C@@H](CC(=O)N[C@H](C(=O)[C@@H]2C(=O)NC(=O)[C@H]2C)C(C)C)c2ccccc2)cc1 [Example 6, (S)-3-[3-(4-Methoxyphenyl)ureido]-N-{(S)-2-methyl-1-[1-((3R,4S)-4-methyl-2,5-dioxopyrrolidin-3-yl)methanoyl]propyl}-3-phenylpropionamide]",62.5,62.5,,
"CC(C)[C@H](NC(=O)C[C@H](NC(=O)N(C)c1ccccc1)c1ccccc1)C(=O)[C@@H]1C(=O)NC(=O)[C@H]1C [Example 7, (S)-N-{(S)-2-Methyl-1-[1-((3R,4S)-4-methyl-2,5-dioxopyrrolidin-3-yl)methanoyl]-propyl}-3-(3-methyl-3-phenylureido)-3-phenylpropionamide]",31.3,15.6,,
"CC(C)[C@H](NC(=O)CC(NC(=O)Nc1cccc2ccccc12)c1ccccc1)C(=O)[C@@H]1C(=O)NC(=O)[C@H]1C (stereo partly drawn) [Example 9, N-((1s)-2-Methyl-1-{[(3R,4S)-4-methyl-2,5-dioxo-3-pyrrolidinyl]carbonyl}propyl)-3-{[(1-naphthylamino)carbonyl]amino}-3-phenylpropionamide]",62.5,7.8,,
CC(C)[C@H](NC(=O)CC(NC(=O)Nc1ccc(Cl)c(C(F)(F)F)c1)c1ccccc1)C(=O)[C@@H]1C(=O)NC(=O)[C@H]1C (stereo partly shown) [Example 10],125,7.8,,
C[C@@H]1C(=O)NC(=O)[C@H]1C(=O)C(NC(=O)C[C@H](NC(=O)OC(C)(C)C)c1ccccc1)C1CCCC1 (stereo partly shown) [Example 33],125,31.3,,
CC(C)[C@H](NC(=O)CC(NC(=O)Oc1ccc(-c2ccccc2)cc1)c1ccccc1)C(=O)[C@@H]1C(=O)NC(=O)[C@H]1C (stereo partly shown) [Example 35],,,0.98,
"CC(C)[C@H](NC(=O)C[C@H](NS(=O)(=O)/C=C/c1ccccc1)c1ccccc1)C(=O)[C@@H]1C(=O)NC(=O)[C@H]1C [Example 47, (3S)-N-((1S)-2-Methyl-1-{[(3R,4S)-4-methyl-2,5-dioxo-3-pyrrolidinyl]carbonyl}-propyl)-3-phenyl-3-({[(E)-2-phenylethenyl]sulfonyl}amino)propionamide]",125,7.8,,
C/C=C/C=C/C=C/C(=O)N[C@@H](CC(=O)N[C@H](C(=O)[C@@H]1C(=O)NC(=O)[C@H]1C)C(C)C)c1ccccc1 [andrimid],,,,having antibacterial activity
C/C=C/C=C/C(=O)N[C@@H](CC(=O)N[C@H](C(=O)[C@@H]1C(=O)NC(=O)[C@H]1C)C(C)C)c1ccccc1 [moiramide B],,,,having antibacterial activity
C/C=C/C=C/C=C/C(=O)N[C@@H](CC(=O)N[C@H](C(=O)[C@@]1(O)C(=O)NC(=O)[C@H]1C)C(C)C)c1ccccc1 [moiramide C],,,,inactive

# Source: patent publication US7544709B2, “Derivatives of andrimide and moiramide B having antibacterial properties” (Bayer Healthcare AG, priority 2001, dated 2009)
